How the values were obtained:
Assay type in all cases: cell-based, mouse
[1] = test system: β-galactosidase in CMV-LacZ C2C12 myoblasts; assay: CMV-LacZ secondary screen in C2C12 myoblasts (β-Gal stabilizing assay); conditions: CMV-LacZ C2C12 myoblasts
Procedure, shortened: (§1)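 Dose-response runs at 0.5–40 μM (0.5, 1, 5, 10, 20, 40 μM; N=2 per point) used a clonal C2C12 line carrying CMV-LacZ. Cells were assayed as myoblasts or as differentiated myotubes, and β-galactosidase levels were read with the FDG fluorogenic substrate.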

[2] = test system: α7 integrin (LacZ reporter in α7βgal+/− myoblasts); assay: Myoblast α7+/LacZ integrin FDG assay (Burkin assay in myoblasts, 96-well); conditions: α7+/LacZ myoblasts, 96-well
[3] = test system: β-galactosidase in CMV-LacZ C2C12 myotubes; assay: CMV-LacZ secondary screen in C2C12 myotubes (β-Gal stabilizing assay); conditions: C2C12 CMV-LacZ myotubes, fold relative to DMSO
Procedure, shortened: as §1

[4] = test system: α7 integrin (LacZ reporter in α7+/LacZ myotubes); assay: Myotube α7 integrin FDG assay (Burkin assay in myotubes, 96-well); conditions: myotubes

Structure (SMILES)	CMV-LACZ in Myoblasts (β-galactosidase activity relative to DMSO) ([1]; 0.5 uM)	CMV-LACZ in Myoblasts (β-galactosidase activity relative to DMSO) ([1]; 1 uM)	CMV-LACZ in Myoblasts (β-galactosidase activity relative to DMSO) ([1]; 5 uM)	CMV-LACZ in Myoblasts (β-galactosidase activity relative to DMSO) ([1]; 10 uM)	CMV-LACZ in Myoblasts (β-galactosidase activity relative to DMSO) ([1]; 20 uM)	CMV-LACZ in Myoblasts (β-galactosidase activity relative to DMSO) ([1]; 40 uM)	Burkin Assay in Myoblasts, signal relative to DMSO ([2]; 0.5 uM)	Burkin Assay in Myoblasts, signal relative to DMSO ([2]; 1 uM)	Burkin Assay in Myoblasts, signal relative to DMSO ([2]; 5 uM)	Burkin Assay in Myoblasts, signal relative to DMSO ([2]; 10 uM)	Burkin Assay in Myoblasts, signal relative to DMSO ([2]; 20 uM)	Burkin Assay in Myoblasts, signal relative to DMSO ([2]; 40 uM)	CMV-LACZ in Myotubes, signal relative to DMSO ([3]; 0.5 uM)	CMV-LACZ in Myotubes, signal relative to DMSO ([3]; 1 uM)	CMV-LACZ in Myotubes, signal relative to DMSO ([3]; 5 uM)	CMV-LACZ in Myotubes, signal relative to DMSO ([3]; 10 uM)	CMV-LACZ in Myotubes, signal relative to DMSO ([3]; 20 uM)	CMV-LACZ in Myotubes, signal relative to DMSO ([3]; 40 uM)	Burkin Assay in Myotubes, α7 integrin LacZ reporter signal relative to DMSO ([4]; 0.5 uM)	Burkin Assay in Myotubes, α7 integrin LacZ reporter signal relative to DMSO ([4]; 1 uM)	other results
Cc1ccccc1NC(=O)c1ccc2c(O)c(S(=O)(=O)c3ccccc3)c(=O)[nH]c2c1 [MLS001122698-01]	1.1513	1.1003	0.7759	0.8608	1.0404	1.0639	0.9829	0.8573	1.008	0.9652	0.9061	0.8389	1.0019	1.0133	1.2038	1.1482	1.0340	1.0110	0.9131	0.9039	Burkin Assay in Myotubes, α7 integrin LacZ reporter signal relative to DMSO ([4]; 5 uM): 0.9575; Burkin Assay in Myotubes, α7 integrin LacZ reporter signal relative to DMSO ([4]; 10 uM): 1.03; Burkin Assay in Myotubes, α7 integrin LacZ reporter signal relative to DMSO ([4]; 20 uM): 0.9209; Burkin Assay in Myotubes, α7 integrin LacZ reporter signal relative to DMSO ([4]; 40 uM): 0.8572
CN(/C(=N/S(=O)(=O)c1cccs1)c1ccccc1)c1ccccc1 [MLS000582947-01]	0.9691	0.8991	1.1273	1.0067	0.7811	0.8819	1.236	0.9632	0.943	0.9807	0.9417	0.7737	0.8848	0.9610	0.9280	0.9127	1.0729	1.0247	0.9003	1.155	Burkin Assay in Myotubes, α7 integrin LacZ reporter signal relative to DMSO ([4]; 5 uM): 1.02; Burkin Assay in Myotubes, α7 integrin LacZ reporter signal relative to DMSO ([4]; 10 uM): 0.9759; Burkin Assay in Myotubes, α7 integrin LacZ reporter signal relative to DMSO ([4]; 20 uM): 1.102; Burkin Assay in Myotubes, α7 integrin LacZ reporter signal relative to DMSO ([4]; 40 uM): 0.791
Cc1ccc(NS(=O)(=O)c2ccc(-c3ccc(=O)[nH]n3)o2)c(C)c1 [MLS001116535-01]	1.0167	1.1779	1.0944	1.0580	1.1815	1.1263	1.092	1.111	0.998	0.9386	1.239	1.267	1.2552	0.8771	1.0648	1.2856	0.9800	1.0011	0.95	1.003	Burkin Assay in Myotubes, α7 integrin LacZ reporter signal relative to DMSO ([4]; 5 uM): 0.8929; Burkin Assay in Myotubes, α7 integrin LacZ reporter signal relative to DMSO ([4]; 10 uM): 0.8553; Burkin Assay in Myotubes, α7 integrin LacZ reporter signal relative to DMSO ([4]; 20 uM): 0.8993; Burkin Assay in Myotubes, α7 integrin LacZ reporter signal relative to DMSO ([4]; 40 uM): 0.8366
CCOc1ccccc1Nc1cc2n(c(=O)n1)CCc1cc(OC)c(OC)cc1-2 [MLS001215294-01]	1.2983	1.2817	0.8138	1.3412	0.3302	0.4116	0.9783	1.003	0.7641	0.6141	0.2025	0.2046	0.8838	1.0800	1.1438	1.4324	1.2800	1.4470	1.047	1.106	Burkin Assay in Myotubes, α7 integrin LacZ reporter signal relative to DMSO ([4]; 5 uM): 0.8935; Burkin Assay in Myotubes, α7 integrin LacZ reporter signal relative to DMSO ([4]; 10 uM): 0.8216; Burkin Assay in Myotubes, α7 integrin LacZ reporter signal relative to DMSO ([4]; 20 uM): 0.8062; Burkin Assay in Myotubes, α7 integrin LacZ reporter signal relative to DMSO ([4]; 40 uM): 0.8079
O=C(O)C(Cc1ccc(O)cc1)N1C(=O)c2ccccc2C1=O (stereo not drawn) [MLS001165394-01]	1.0655	1.0015	1.0941	0.9792	0.8663	0.9570	1.149	1.201	1.159	0.951	1.035	1.007	0.9232	1.1558	0.9589	0.9045	1.0344	0.9544	1.068	1.135	Burkin Assay in Myotubes, α7 integrin LacZ reporter signal relative to DMSO ([4]; 5 uM): 1.239; Burkin Assay in Myotubes, α7 integrin LacZ reporter signal relative to DMSO ([4]; 10 uM): 0.9854; Burkin Assay in Myotubes, α7 integrin LacZ reporter signal relative to DMSO ([4]; 20 uM): 1.188; Burkin Assay in Myotubes, α7 integrin LacZ reporter signal relative to DMSO ([4]; 40 uM): 1.034
CCC(C)n1[nH]c(=O)cc1N (stereo not drawn) [MLS000073150-01]	1.0753	1.8970	0.8193	0.9954	0.9491	0.9000	1.262	1.0875	0.9262	0.909	1.139	1.068	1.0752	1.0848	1.2058	1.1088	0.9750	1.0390	1.111	0.9205	Burkin Assay in Myotubes, α7 integrin LacZ reporter signal relative to DMSO ([4]; 5 uM): 0.9467; Burkin Assay in Myotubes, α7 integrin LacZ reporter signal relative to DMSO ([4]; 10 uM): 0.9476; Burkin Assay in Myotubes, α7 integrin LacZ reporter signal relative to DMSO ([4]; 20 uM): 0.8369; Burkin Assay in Myotubes, α7 integrin LacZ reporter signal relative to DMSO ([4]; 40 uM): 0.856
